Test results taken from PubChem BioAssay AID330 (DTP/NCI, 2004).
“And” between values parts separate entries of the source, which are not always exact repeats. Identical values can stand only once. Toxic doses and inconclusive results are not listed. Peptide text beside a SMILES is read from it. * marks the point of attachment. Cbz = O=C(OCc1ccccc1)*; OBn = c1ccc(CO*)cc1

Tested on: P388 leukemia ip, CD2F1 mice, survival T/C
Assay: NCI In Vivo Anticancer Drug Screen. Data for tumor model P388 Leukemia (intraperitoneal) in CD2F1 (CDF1) mice
Settings: endpoint: median survival time, higher = longer survival
Method: The antitumor activity of compounds was measured in mice bearing transplantable tumors. Survival or tumor size were measured and the results are expressed as the measurement made in the treated group (T) divided by the measurement made in the vehicle treated control group (C). The tumor model used in this assay is P388 Leukemia (intraperitoneal) in CD2F1 (CDF1) mice

[1] = dose: 50.0 mg/kg/injection, schedule: Q01DX009 (ip), vehicle: Klucel (hydroxypropylcellulose) (HPC)
[2] = dose: 60.0 mg/kg/injection, schedule: Q01DX005 (ip), vehicle: saline with Tween-80
[3] = dose: 120.0 mg/kg/injection, schedule: Q01DX005 (ip), vehicle: saline with Tween-80
[4] = dose: 240.0 mg/kg/injection, schedule: Q01DX005 (ip), vehicle: saline with Tween-80
[5] = dose: 100.0 mg/kg/injection, schedule: Q04DX003 (ip), vehicle: saline with Tween-80
[6] = dose: 100.0 mg/kg/injection, schedule: Q01DX009 (ip), vehicle: saline with Tween-80
[7] = dose: 200.0 mg/kg/injection, schedule: Q01DX009 (ip), vehicle: saline with Tween-80
[8] = dose: 25.0 mg/kg/injection, schedule: Q01DX005 (ip), vehicle: Klucel (hydroxypropylcellulose) (HPC)
[9] = dose: 100.0 mg/kg/injection, schedule: Q01DX005 (ip), vehicle: Klucel (hydroxypropylcellulose) (HPC)
[10] = dose: 200.0 mg/kg/injection, schedule: Q01DX001 (ip), vehicle: saline with Tween-80
[11] = dose: 400.0 mg/kg/injection, schedule: Q01DX001 (ip), vehicle: saline with Tween-80
[12] = dose: 50.0 mg/kg/injection, schedule: Q01DX005 (ip), vehicle: saline with Tween-80
[13] = dose: 100.0 mg/kg/injection, schedule: Q01DX005 (ip), vehicle: saline with Tween-80
[14] = dose: 200.0 mg/kg/injection, schedule: Q01DX005 (ip), vehicle: saline with Tween-80
[15] = dose: 50.0 mg/kg/injection, schedule: Q01DX005 (ip), vehicle: Klucel (hydroxypropylcellulose) (HPC)
[16] = dose: 50.0 mg/kg/injection, schedule: Q01DX009 (ip), vehicle: saline with Tween-80
[17] = dose: 100.0 mg/kg/injection, schedule: Q01DX009 (ip), vehicle: Klucel (hydroxypropylcellulose) (HPC)
[18] = dose: 200.0 mg/kg/injection, schedule: Q01DX009 (ip), vehicle: Klucel (hydroxypropylcellulose) (HPC)

In the case of `O=[N+]([O-])c1cc(C(F)(F)F)ccc1F`, the T/C (dose: 25.0 mg/kg/injection, schedule: Q01DX009 (ip), vehicle: Klucel (hydroxypropylcellulose) (HPC)) is reported as 106 % of control and the T/C [1] is reported as 106 % of control.
`COc1cc(O)c2c(=O)c3c(O)c(OC4OC(COC5OC(C)C(OC(C)=O)C(O)C5O)C(O)C(O)C4O)ccc3oc2c1` (stereo not drawn) was tested, and the T/C (dose: 1.5 mg/kg/injection, schedule: Q01DX009 (ip), vehicle: saline) was 100 % of control, the T/C (dose: 3.0 mg/kg/injection, schedule: Q01DX009 (ip), vehicle: saline) was 100 % of control and the T/C (dose: 6.0 mg/kg/injection, schedule: Q01DX009 (ip), vehicle: saline) was 107 % of control. The T/C (dose: 12.0 mg/kg/injection, schedule: Q01DX009 (ip), vehicle: saline) was 103 % of control.
`NC(=O)/C=C1\NC(=O)CS1` was tested, and the T/C (dose: 100.0 mg/kg/injection, schedule: Q01DX009 (ip), vehicle: saline sonified) was 95 % of control, the T/C (dose: 200.0 mg/kg/injection, schedule: Q01DX009 (ip), vehicle: saline sonified) was 90 % of control and the T/C (dose: 400.0 mg/kg/injection, schedule: Q01DX009 (ip), vehicle: saline sonified) was 95 % of control.
`CC(=O)OCCOCNC(=S)NN1CCOCC1` was tested, and the T/C [2] was 100 % of control, the T/C [3] was 95 % of control and the T/C [4] was 100 % of control.
With `Cc1n[nH]c(=S)nc1C` the T/C (dose: 12.5 mg/kg/injection, schedule: Q04DX003 (ip), vehicle: saline with Tween-80) was 100 % of control, the T/C (dose: 25.0 mg/kg/injection, schedule: Q04DX003 (ip), vehicle: saline with Tween-80) was 93 % of control and the T/C (dose: 50.0 mg/kg/injection, schedule: Q04DX003 (ip), vehicle: saline with Tween-80) was 100 % of control. The T/C [5] was 95 % of control.
In the case of `CC1OC2=C(CC1O)C(=O)c1ccccc1C2=O` (stereo not drawn), the T/C (dose: 100.0 mg/kg/injection, schedule: Q01DX001 (ip), vehicle: Klucel (hydroxypropylcellulose) (HPC)) is reported as 102 % of control, the T/C (dose: 200.0 mg/kg/injection, schedule: Q01DX001 (ip), vehicle: Klucel (hydroxypropylcellulose) (HPC)) is reported as 102 % of control and the T/C (dose: 400.0 mg/kg/injection, schedule: Q01DX001 (ip), vehicle: Klucel (hydroxypropylcellulose) (HPC)) is reported as 100 % of control.
`COc1cc(C(c2cc3c(cc2O)OCO3)N2CCCC2)cc(OC)c1OC` (stereo not drawn) was tested, and the T/C (dose: 60.0 mg/kg/injection, schedule: Q01DX005 (ip), vehicle: Klucel (hydroxypropylcellulose) (HPC)) was 118 % of control, the T/C (dose: 120.0 mg/kg/injection, schedule: Q01DX005 (ip), vehicle: Klucel (hydroxypropylcellulose) (HPC)) was 106 % of control and the T/C (dose: 240.0 mg/kg/injection, schedule: Q01DX005 (ip), vehicle: Klucel (hydroxypropylcellulose) (HPC)) was 101 % of control.
In the case of `CC1CC(C)(C)N=C(CCC2CCCC2=O)O1` (stereo not drawn), the T/C [6] is reported as 91 % of control, the T/C [5] is reported as 95 % of control and the T/C [7] is reported as 100 % of control. The T/C (dose: 200.0 mg/kg/injection, schedule: Q04DX003 (ip), vehicle: saline with Tween-80) was 100 % of control, the T/C (dose: 400.0 mg/kg/injection, schedule: Q01DX009 (ip), vehicle: saline with Tween-80) was 104 % of control and the T/C (dose: 400.0 mg/kg/injection, schedule: Q04DX003 (ip), vehicle: saline with Tween-80) was 104 % of control.
With `Nc1ncnc2c1ncn2C1OC(COS(N)(=O)=O)C(O)C1O` (stereo not drawn) the T/C (dose: 0.02 mg/kg/injection, schedule: Q01DX005 (ip), vehicle: saline) was 98 % of control, the T/C (dose: 0.04 mg/kg/injection, schedule: Q01DX005 (ip), vehicle: saline) was 103 % of control and the T/C (dose: 0.09 mg/kg/injection, schedule: Q01DX005 (ip), vehicle: saline) was 119 % of control. For the same molecule, the T/C (dose: 0.18 mg/kg/injection, schedule: Q01DX001 (ip), vehicle: saline) was 109 % of control.
For `CC(/C=C/c1ccccc1)=N\NC(=O)c1ccccc1`, the T/C (dose: 6.25 mg/kg/injection, schedule: Q01DX005 (ip), vehicle: Klucel (hydroxypropylcellulose) (HPC)) was 108 % of control, the T/C (dose: 12.5 mg/kg/injection, schedule: Q01DX005 (ip), vehicle: Klucel (hydroxypropylcellulose) (HPC)) was 97 % of control and the T/C [8] was 100 % of control and 108 % of control and 96 % of control. The T/C [9] was 112 % of control.
For `CC1=CC2C(=O)N(C)C1c1ccccc12` (stereo not drawn), the T/C (dose: 100.0 mg/kg/injection, schedule: Q04DX002 (ip), vehicle: Klucel (hydroxypropylcellulose) (HPC)) was 100 % of control, the T/C (dose: 200.0 mg/kg/injection, schedule: Q04DX002 (ip), vehicle: Klucel (hydroxypropylcellulose) (HPC)) was 100 % of control and the T/C (dose: 400.0 mg/kg/injection, schedule: Q04DX002 (ip), vehicle: Klucel (hydroxypropylcellulose) (HPC)) was 97 % of control.
With `FC(F)(F)C(Cl)Br` (stereo not drawn) the T/C (dose: 25.0 mg/kg/injection, schedule: Q04DX003 (ip), vehicle: saline) was 109 % of control, the T/C (dose: 50.0 mg/kg/injection, schedule: Q04DX003 (ip), vehicle: saline) was 109 % of control and the T/C (dose: 100.0 mg/kg/injection, schedule: Q01DX009 (ip), vehicle: saline) was 100 % of control. For the same molecule, the T/C (dose: 100.0 mg/kg/injection, schedule: Q04DX003 (ip), vehicle: saline) was 109 % of control, the T/C (dose: 200.0 mg/kg/injection, schedule: Q01DX009 (ip), vehicle: saline) was 90 % of control and the T/C (dose: 400.0 mg/kg/injection, schedule: Q01DX009 (ip), vehicle: saline) was 90 % of control.
With `Cn1cnc2c1c(=O)n(C(C(N)=O)C(N)=O)c(=O)n2C` the T/C [10] was 104 % of control and the T/C [11] was 101 % of control.
For `Oc1ccccc1N=Cc1ccc2c(c1)OCO2`, the T/C (dose: 25.0 mg/kg/injection, schedule: Q01DX005 (ip), vehicle: saline with Tween-80) was 103 % of control, the T/C [12] was 110 % of control and the T/C [13] was 104 % of control. The T/C [14] was 110 % of control.
With `Cc1cc(Cl)c2c(c1N)C(=O)c1ccccc1C2=O` the T/C [15] was 97 % of control, the T/C [9] was 96 % of control and the T/C (dose: 200.0 mg/kg/injection, schedule: Q01DX005 (ip), vehicle: Klucel (hydroxypropylcellulose) (HPC)) was 98 % of control.
With `COCCOCOC(C)(C)CCCCl` the T/C [2] was 106 % of control, the T/C [3] was 101 % of control and the T/C [4] was 100 % of control.
In the case of `CC(C)C(NC(=O)C(CCCCNC(=O)OCc1ccccc1)NC(=O)OCc1ccccc1)C(=O)OCc1ccccc1` (stereo not drawn) (Cbz-Lys(Cbz)-Val-OBn; configuration not given here), the T/C [12] is reported as 89 % of control, the T/C [13] is reported as 91 % of control and the T/C [14] is reported as 103 % of control.
For `O=C(O)CSCc1nc2ccccc2[nH]1`, the T/C (dose: 100.0 mg/kg/injection, schedule: Q01DX001 (ip), vehicle: saline with Tween-80) was 95 % of control, the T/C [10] was 90 % of control and the T/C [11] was 100 % of control.
For `O=c1c2ccccc2n(-c2ccccc2)c2ccc(Cl)cc12`, the T/C [12] was 86 % of control and the T/C [13] was 90 % of control.
In the case of `OC1c2ccccc2OC2(N3CCCC3)CCCCC12` (stereo not drawn), the T/C [16] is reported as 98 % of control, the T/C [6] is reported as 94 % of control and the T/C [7] is reported as 91 % of control.
For `Cc1ccc(S(=O)(=O)/N=S(\C)CC(C)Cl)cc1` (stereo not drawn), the T/C [1] was 100 % of control, the T/C [17] was 105 % of control and the T/C [18] was 105 % of control.
For `CC1N[P+]2(OC1=O)Oc1ccccc1N2C` (stereo not drawn), the T/C (dose: 87.5 mg/kg/injection, schedule: Q04DX002 (ip), vehicle: Klucel (hydroxypropylcellulose) (HPC)) was 102 % of control, the T/C (dose: 175.0 mg/kg/injection, schedule: Q04DX002 (ip), vehicle: Klucel (hydroxypropylcellulose) (HPC)) was 100 % of control and the T/C (dose: 350.0 mg/kg/injection, schedule: Q04DX002 (ip), vehicle: Klucel (hydroxypropylcellulose) (HPC)) was 100 % of control.
With `CSCCC([NH-])C(=O)O.CSCCC([NH-])C(=O)O.[Zn+2]` (stereo not drawn) the T/C [12] was 110 % of control and the T/C [13] was 111 % of control.
For `O=C(Oc1ccccc1)c1ccc(C(=O)Oc2ccccc2)cc1`, the T/C [1] was 108 % of control, the T/C [17] was 102 % of control and the T/C [18] was 101 % of control.
With `CC(C)(C)OC(=O)N/N=C\c1ccnc2ccccc12` the T/C [8] was 93 % of control, the T/C [15] was 96 % of control and the T/C [9] was 93 % of control.
For `Cc1ccccc1C1(O)CCCCC1`, the T/C [16] was 105 % of control, the T/C [6] was 107 % of control and the T/C [7] was 101 % of control.
With `C/C(=N/N=C(N)N)c1ccc(NC(=O)Nc2ccc(/C(C)=N/N=C(N)N)cc2)cc1` the T/C (dose: 6.25 mg/kg/injection, schedule: Q01DX009 (ip), vehicle: water) was 151 % of control, the T/C [5] was 150 % of control and the T/C (dose: 150.0 mg/kg/injection, schedule: Q04DX003 (ip), vehicle: saline with Tween-80) was 118 % of control.
